# Assay results reported in ChEMBL document CHEMBL5727267, “Compounds useful as inhibitors of ATR kinase” (2019).
# Target: Serine/threonine-protein kinase ATR (Homo sapiens, UniProt Q13535)
# Assay: Inhibition Assay: Compounds were screened for their ability to inhibit ATR kinase using a radioactive-phosphate incorporation assay. Assays were carried out in a mixture of 50 mM Tris/HCl (pH 7.5), 10 mM MgCl2 and 1 mM DTT. Final substrate concentrations were 10 μM [γ-33P]ATP (3mCi 33P ATP/mmol ATP, Perkin Elmer) and 800 μM target peptide ([…]) (SEQ ID NO:1).Assays were carried out at 25° C. in the presence of 5 nM full-length ATR. An assay stock buffer solution was prepared containing all of the reagents listed above, with the exception of ATP and the test compound of interest. 13.5 μL of the stock solution was placed in a 96 well plate followed by addition of 2 μL of DMSO stock containing serial dilutions of the test compound (typically starting from a final concentration of 15 μM with 3-fold serial dilutions) in duplicate (final DMSO concentration 7%). The plate was pre-incubated for 10 minutes at 25° C. and the reaction initiated by addition of 15 μL [γ-33P]ATP (final concentration 10 μM).The reaction was stopped after 24 hours by the addition of 30 μL 0.1M phosphoric acid containing 2 mM ATP. A multiscreen phosphocellulose filter 96-well plate (Millipore, Cat no. MAPHN0B50) was pretreated with 100 μL 0.2M phosphoric acid prior to the addition of […] of the stopped assay mixture. The plate was washed with 5×200 μL 0.2M phosphoric acid. After drying, 100 μL Optiphase ‘SuperMix’ liquid scintillation cocktail (Perkin Elmer) was added to the well prior to scintillation counting (1450 Microbeta Liquid Scintillation Counter, Wallac).
# Serine/threonine-protein kinase ATR, sequence (Q13535 whole entry): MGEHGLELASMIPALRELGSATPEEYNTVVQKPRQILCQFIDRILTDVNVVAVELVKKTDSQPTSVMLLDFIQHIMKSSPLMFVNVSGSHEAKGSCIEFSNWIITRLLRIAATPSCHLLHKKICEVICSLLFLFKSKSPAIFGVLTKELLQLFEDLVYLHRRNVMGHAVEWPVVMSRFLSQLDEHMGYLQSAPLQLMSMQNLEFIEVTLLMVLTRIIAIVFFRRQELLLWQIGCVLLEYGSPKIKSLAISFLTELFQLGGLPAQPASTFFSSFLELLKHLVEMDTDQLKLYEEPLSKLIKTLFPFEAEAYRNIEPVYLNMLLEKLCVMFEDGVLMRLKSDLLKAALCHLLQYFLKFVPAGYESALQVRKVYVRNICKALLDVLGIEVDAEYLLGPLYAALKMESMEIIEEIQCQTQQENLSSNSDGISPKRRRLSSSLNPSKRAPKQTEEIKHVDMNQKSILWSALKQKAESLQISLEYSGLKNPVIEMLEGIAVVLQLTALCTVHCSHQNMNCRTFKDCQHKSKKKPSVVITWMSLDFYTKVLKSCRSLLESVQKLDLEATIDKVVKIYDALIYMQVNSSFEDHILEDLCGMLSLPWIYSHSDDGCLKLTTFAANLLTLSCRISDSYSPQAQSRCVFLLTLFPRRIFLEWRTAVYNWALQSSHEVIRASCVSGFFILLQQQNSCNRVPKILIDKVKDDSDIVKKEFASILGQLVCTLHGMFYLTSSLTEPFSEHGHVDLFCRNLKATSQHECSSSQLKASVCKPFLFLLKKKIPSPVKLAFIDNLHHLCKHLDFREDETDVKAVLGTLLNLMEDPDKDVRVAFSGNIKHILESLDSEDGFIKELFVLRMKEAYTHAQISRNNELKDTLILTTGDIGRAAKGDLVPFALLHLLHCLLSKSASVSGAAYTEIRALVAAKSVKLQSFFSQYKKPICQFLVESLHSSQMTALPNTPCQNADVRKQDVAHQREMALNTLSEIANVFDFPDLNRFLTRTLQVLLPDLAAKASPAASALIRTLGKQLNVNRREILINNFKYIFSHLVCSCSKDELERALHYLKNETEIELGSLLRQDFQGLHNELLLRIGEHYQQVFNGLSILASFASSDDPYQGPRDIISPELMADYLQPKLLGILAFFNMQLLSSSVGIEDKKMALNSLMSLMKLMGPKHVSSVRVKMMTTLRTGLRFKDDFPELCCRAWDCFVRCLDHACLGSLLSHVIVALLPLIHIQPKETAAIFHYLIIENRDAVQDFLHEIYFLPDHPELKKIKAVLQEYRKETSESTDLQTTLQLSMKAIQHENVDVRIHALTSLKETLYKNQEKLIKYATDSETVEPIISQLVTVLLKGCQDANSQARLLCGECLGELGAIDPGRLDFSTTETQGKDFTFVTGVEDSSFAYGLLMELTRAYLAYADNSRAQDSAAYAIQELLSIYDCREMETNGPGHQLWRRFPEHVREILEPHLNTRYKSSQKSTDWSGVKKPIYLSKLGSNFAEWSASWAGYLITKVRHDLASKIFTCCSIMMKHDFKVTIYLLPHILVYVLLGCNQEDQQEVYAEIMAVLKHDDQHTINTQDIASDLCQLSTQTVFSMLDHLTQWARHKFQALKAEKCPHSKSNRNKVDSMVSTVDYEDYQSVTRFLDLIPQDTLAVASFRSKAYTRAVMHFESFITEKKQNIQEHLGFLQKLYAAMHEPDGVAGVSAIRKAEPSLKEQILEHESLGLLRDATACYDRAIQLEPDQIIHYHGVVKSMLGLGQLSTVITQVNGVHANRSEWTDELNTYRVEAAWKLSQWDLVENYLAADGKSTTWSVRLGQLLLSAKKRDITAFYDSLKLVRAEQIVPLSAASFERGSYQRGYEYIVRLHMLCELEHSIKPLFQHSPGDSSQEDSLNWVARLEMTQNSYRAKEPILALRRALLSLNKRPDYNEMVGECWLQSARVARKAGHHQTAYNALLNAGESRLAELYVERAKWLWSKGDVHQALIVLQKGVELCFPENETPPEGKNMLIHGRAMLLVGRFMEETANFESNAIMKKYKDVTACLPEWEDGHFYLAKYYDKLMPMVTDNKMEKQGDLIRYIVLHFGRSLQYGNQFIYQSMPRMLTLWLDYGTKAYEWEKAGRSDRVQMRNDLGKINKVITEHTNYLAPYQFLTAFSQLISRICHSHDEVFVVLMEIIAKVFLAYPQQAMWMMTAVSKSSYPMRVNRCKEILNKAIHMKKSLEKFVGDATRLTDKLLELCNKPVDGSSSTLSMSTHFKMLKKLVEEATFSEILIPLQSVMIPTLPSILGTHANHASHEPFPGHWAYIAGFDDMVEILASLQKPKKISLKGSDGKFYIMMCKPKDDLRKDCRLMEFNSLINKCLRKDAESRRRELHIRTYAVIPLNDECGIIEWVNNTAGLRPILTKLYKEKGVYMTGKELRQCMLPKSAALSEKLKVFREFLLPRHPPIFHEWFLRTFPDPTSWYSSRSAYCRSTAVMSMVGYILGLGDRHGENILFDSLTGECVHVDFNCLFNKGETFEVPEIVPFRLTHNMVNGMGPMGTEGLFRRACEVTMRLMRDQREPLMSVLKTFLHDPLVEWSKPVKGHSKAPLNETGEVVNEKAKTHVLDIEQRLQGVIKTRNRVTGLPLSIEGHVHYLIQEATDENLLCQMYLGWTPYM
row,Ki,Structure (SMILES)
1,< 10 nM,N#CCc1cnc2c(C(=O)Nc3cnccc3O[C@H]3CCNC3)c(N)nn2c1
2,10 to 1000 nM,CC(=O)N1CCN(c2ccncc2NC(=O)c2c(N)nn3cc(F)cnc23)CC1
3,< 10 nM,Nc1nn2cc(F)cnc2c1C(=O)Nc1cncc(F)c1N1CCC(C(=O)N2CCC(N3CCC3)CC2)CC1
